Assay results as given in patent publication US12516346B2, “Intelligent genetic breeding and seed production system for crop cross breeding and hybrid seed production, and application thereof” (Hainan Bolian Technology Co., Ltd., priority 2020, dated 2026).

Assays:
[1] = system: GAT T0 generation transformants and wild-type control ZH11; assay: Bentazon sensitive phenotype, spraying of scribed leaf area, T0 generation; type: in vivo, rice
Experimental: In order to test the working efficiency of herbicide sensitive elements in the GAT system, after the identification of bispyribac-sodium resistance phenotype, a 3 g/L bentazone solution was prepared with 48% bentazone mother liquor (Changzhou Precision Biotechnology Co., Ltd.). The scribed area of plant leaves of surviving GAT T0 generation (347 strains) in the last spraying experiment with bispyribac-sodium and the wild-type control ZH11 were sprayed with the resultant solution, and were continuously observed after spraying. Some GAT transformants T0 had curly and yellow leaf tips on the third day after spraying. […] Meanwhile, 86 strains were highly resistant to bispyribac-sodium and highly sensitive to bentazone. Based on the similar analysis of the transformation events of the above bispyribac-sodium resistance strains, it can be seen that this experiment confirmed that the working efficiency of herbicide sensitive elements in the GAT system is high, and the created GAT seed breeding system can quickly and accurately identify the corresponding phenotype thereof.

[2] = system: T1 generation seedlings of GAT key plants, ZH11, CK+ (P450i2-30); assay: Bentazone spraying of T1 generation seedlings; type: in vivo, rice; conditions: 3 g/L bentazone
Experimental: In order to identify the working efficiency of herbicide sensitive elements in the T1 generation of the GAT transformants, a 3 g/L bentazone solution was prepared with 48% bentazone mother liquor (Changzhou Precision Biotechnology Co., Ltd.). Some plants in the positive strains screened by bispyribac-sodium in Example 5-1 were sprayed, and continuously observed after spraying. […] See Table 3 and FIG. 22 for specific results.
ZH11 is Resistance Control, CK+(P450i2-30) is the Sensitive Positive Control

[3] = 347 GAT T0 strains, 3 g/L bentazone
[4] = strain 11-1 T1, 8 plants sprayed
[5] = strain 23-2 T1, 12 plants sprayed
[6] = strain 23 T1, 14 plants sprayed
[7] = strain 53-3 T1, 8 plants sprayed
[8] = strain 77-2 T1, 2 plants sprayed
[9] = strain 88-4 T1, 13 plants sprayed
[10] = strain 93-2 T1, 9 plants sprayed
[11] = strain 95-2 T1, 2 plants sprayed
[12] = strain 174-3 T1, 10 plants sprayed
[13] = strain 175-4 T1, 7 plants sprayed
[14] = strain CK + (P450i2-30) (sensitive positive control), 4 plants sprayed
[15] = strain ZH11 (resistance control), 4 plants sprayed

With CC(C)N1C(=O)c2ccccc2NS1(=O)=O [bentazone] the “number of low sensitive or non-phenotypic strains” value [1, 3] was 122 strains, the “number of strains withered severely then recovered (moderately sensitive)” value [1, 3] was 81 strains and the “number of strains with irreversible leaf wilt (highly sensitive)” value ([1]; 347 GAT T0 strains, 3 g/L bentazone, 7th to 14th day) was 144 strains. The “number of strains highly resistant to bispyribac-sodium and highly sensitive to bentazone” value ([1]; GAT T0 strains, 600 mg/L bispyribac-sodium then 3 g/L bentazone) was 86 strains, the “number of strains with individual plants slightly less sensitive, eventually died” value ([2]; T1 strains) was 5 strains and the “number of strains highly susceptible to wilt and death (highly sensitive)” value ([2]; bispyribac-sodium resistance T1 strains, 14th day) was 6 strains. For the same molecule, the Highly sensitive ratio ([2]; strain 4 T1, 2 plants sprayed) was 1/2, the “Highly sensitive(dead)” value ([2]; strain 4 T1, 2 plants sprayed) was 1 and the Low sensitivity ([2]; strain 4 T1, 2 plants sprayed) was 0. The Medium sensitivity ([2]; strain 4 T1, 2 plants sprayed) was 1, the No phenotype ([2]; strain 4 T1, 2 plants sprayed) was 0 and the Highly sensitive ratio ([2]; strain 7 T1, 15 plants sprayed) was 2/15. The “Highly sensitive(dead)” value ([2]; strain 7 T1, 15 plants sprayed) was 2, the Low sensitivity ([2]; strain 7 T1, 15 plants sprayed) was 13 and the Medium sensitivity ([2]; strain 7 T1, 15 plants sprayed) was 0. For the same molecule, the No phenotype ([2]; strain 7 T1, 15 plants sprayed) was 0, the Highly sensitive ratio [2, 4] was 8/8 and the “Highly sensitive(dead)” value [2, 4] was 8. It also gave a Low sensitivity [2, 4] of 0, a Medium sensitivity [2, 4] of 0 and a No phenotype [2, 4] of 0. For the same molecule, the Highly sensitive ratio ([2]; strain 20 T1, 3 plants sprayed) was 2/3, the “Highly sensitive(dead)” value ([2]; strain 20 T1, 3 plants sprayed) was 2 and the Low sensitivity ([2]; strain 20 T1, 3 plants sprayed) was 0. For the same molecule, the Medium sensitivity ([2]; strain 20 T1, 3 plants sprayed) was 1, the No phenotype ([2]; strain 20 T1, 3 plants sprayed) was 0 and the Highly sensitive ratio [2, 5] was 11/12. The “Highly sensitive(dead)” value [2, 5] was 11, the Low sensitivity [2, 5] was 0 and the Medium sensitivity [2, 5] was 1. The No phenotype [2, 5] was 0, the Highly sensitive ratio [2, 6] was 14/14 and the “Highly sensitive(dead)” value [2, 6] was 14. For the same molecule, the Low sensitivity [2, 6] was 0, the Medium sensitivity [2, 6] was 0 and the No phenotype [2, 6] was 0. For the same molecule, the Highly sensitive ratio ([2]; strain 28 T1, 7 plants sprayed) was 7/7, the “Highly sensitive(dead)” value ([2]; strain 28 T1, 7 plants sprayed) was 7 and the Low sensitivity ([2]; strain 28 T1, 7 plants sprayed) was 0. For the same molecule, the Medium sensitivity ([2]; strain 28 T1, 7 plants sprayed) was 0, the No phenotype ([2]; strain 28 T1, 7 plants sprayed) was 0 and the Highly sensitive ratio [2, 7] was 8/8. For the same molecule, the “Highly sensitive(dead)” value [2, 7] was 8, the Low sensitivity [2, 7] was 0 and the Medium sensitivity [2, 7] was 0. The No phenotype [2, 7] was 0, the Highly sensitive ratio [2, 8] was 2/2 and the “Highly sensitive(dead)” value [2, 8] was 2. The Low sensitivity [2, 8] was 0, the Medium sensitivity [2, 8] was 0 and the No phenotype [2, 8] was 0. The Highly sensitive ratio [2, 9] was 12/13, the “Highly sensitive(dead)” value [2, 9] was 12 and the Low sensitivity [2, 9] was 0. For the same molecule, the Medium sensitivity [2, 9] was 1, the No phenotype [2, 9] was 0 and the Highly sensitive ratio [2, 10] was 8/9. The “Highly sensitive(dead)” value [2, 10] was 8, the Low sensitivity [2, 10] was 1 and the Medium sensitivity [2, 10] was 0. The No phenotype [2, 10] was 0, the Highly sensitive ratio [2, 11] was 2/2 and the “Highly sensitive(dead)” value [2, 11] was 2. The Low sensitivity [2, 11] was 0, the Medium sensitivity [2, 11] was 0 and the No phenotype [2, 11] was 0. For the same molecule, the Highly sensitive ratio [2, 12] was 4/10, the “Highly sensitive(dead)” value [2, 12] was 4 and the Low sensitivity [2, 12] was 6. For the same molecule, the Medium sensitivity [2, 12] was 0, the No phenotype [2, 12] was 0 and the Highly sensitive ratio [2, 13] was 5/7. The “Highly sensitive(dead)” value [2, 13] was 5, the Low sensitivity [2, 13] was 0 and the Medium sensitivity [2, 13] was 2. The No phenotype [2, 13] was 0, the Highly sensitive ratio [2, 14] was 4/4 and the “Highly sensitive(dead)” value [2, 14] was 4. For the same molecule, the Low sensitivity [2, 14] was 0, the Medium sensitivity [2, 14] was 0 and the No phenotype [2, 14] was 0. The Highly sensitive ratio [2, 15] was 0/4, the “Highly sensitive(dead)” value [2, 15] was 0 and the Low sensitivity [2, 15] was 0. For the same molecule, the Medium sensitivity [2, 15] was 0 and the No phenotype [2, 15] was 4.
